Legend:
[1] = biological target: T1, glucocorticoid receptor (GR) (Homo sapiens, UniProt P04150); assay: binding to the glucocorticoid receptor (recombinant receptor, cytosol of baculovirus-infected Sf9 cells)
T1 construct: made in house; host or cells: Sf9 insect cells infected with recombinant baculovirus; cytosol preparation
T1 sequence (P04150 1-777): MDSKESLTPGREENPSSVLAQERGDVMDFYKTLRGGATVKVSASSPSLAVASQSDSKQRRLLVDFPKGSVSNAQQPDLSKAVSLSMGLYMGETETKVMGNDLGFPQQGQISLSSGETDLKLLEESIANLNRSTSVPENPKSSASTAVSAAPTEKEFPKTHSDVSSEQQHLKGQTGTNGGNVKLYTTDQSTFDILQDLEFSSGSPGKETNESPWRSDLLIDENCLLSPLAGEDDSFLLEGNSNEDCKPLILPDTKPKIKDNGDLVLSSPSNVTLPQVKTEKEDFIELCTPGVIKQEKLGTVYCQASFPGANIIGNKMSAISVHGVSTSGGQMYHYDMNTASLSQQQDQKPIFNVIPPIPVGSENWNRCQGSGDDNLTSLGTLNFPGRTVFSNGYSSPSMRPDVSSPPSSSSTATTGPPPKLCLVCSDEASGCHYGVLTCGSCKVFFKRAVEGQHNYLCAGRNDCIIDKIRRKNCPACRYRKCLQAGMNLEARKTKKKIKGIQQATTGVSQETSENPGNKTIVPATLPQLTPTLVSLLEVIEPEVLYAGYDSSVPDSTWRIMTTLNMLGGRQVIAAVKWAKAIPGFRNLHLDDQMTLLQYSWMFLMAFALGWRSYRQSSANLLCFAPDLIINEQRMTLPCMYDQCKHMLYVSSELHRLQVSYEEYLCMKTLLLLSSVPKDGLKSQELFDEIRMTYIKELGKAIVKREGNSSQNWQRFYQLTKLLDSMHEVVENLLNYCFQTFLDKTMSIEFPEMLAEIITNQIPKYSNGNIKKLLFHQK
From the text: The binding of the substances to the glucocorticoid receptor (GR) and other steroid hormone receptors (mineral corticoid receptor (MR), progesterone receptor (PR) and androgen receptor (AR)) is examined with the aid of recombinantly produced receptors. Cytosol preparations of Sf9 cells, which had been infected with recombinant baculoviruses, which code for the GR, are used for the binding studies.

[2] = test system: cytokine IL-8 secretion, human monocyte cell line THP-1; assay: inhibition of LPS-triggered IL-8 secretion in THP-1 cells (ELISA); type: cell-based; details: in comparison with dexamethasone as reference
Procedure: The concentration of the cytokines was determined in the supernatant by means of commercially available ELISA kits.

- IC50 [1]: 6.3 nM
Structure (SMILES): COCC(O)(C(Nc1cc(F)cc2c1ccc(=O)n2-c1ccc(F)nc1)c1ccc(OC)c(F)c1Cl)C(F)(F)F (centres unmarked) [Example 2, 5-{[1-(2-Chloro-3-fluoro-4-methoxyphenyl)-3,3,3-trifluoro-2-hydroxy-2-(methoxymethyl)propyl]amino}-7-fluoro-1-(6-fluoropyridin-3-yl)-1H quinolin-2-one]
- efficacy of IL-8 inhibition [2]: 107%

Source: US20100016338A1, “5-[(3,3,3-Trifluoro-2-hydroxy-1-arylpropyl)amino]-1-arylquinolin-2-ones, a Process for their Production and their Use as Anti-inflammatory Agents” (BAYER SCHERING PHARMA AKTIENGESELLSCHAFT, priority 2008, published 2010)
